What was measured:
[1] = test system: 20S proteasome; conditions: cited from earlier work
[2] = test system: E. coli indicator strain ATCC 27856; test: Antibacterial activity against E. coli indicator strain; type: cell-based; conditions: data not shown

Structure (SMILES)	proteasome inhibitory properties (in words) [1]	antibacterial activity against E. coli [2]
C/C=C(\NC(=O)c1csc(-c2csc(-c3ccc4c(n3)-c3csc(n3)[C@H]([C@@H](C)O)NC(=O)c3csc(n3)[C@H](C(C)C)NC(=O)c3csc(n3)/C(=C/C)NC(=O)[C@H]([C@@H](C)O)NC(=O)c3csc-4n3)n2)n1)C(=O)NC[C@@H](C)O [micrococcin P1]	have not yet revealed any proteasome inhibitory properties	–
C=C(NC(=O)C(=C)NC(=O)c1csc(C2=NC3c4csc(n4)[C@H]4NC(=O)c5csc(n5)[C@H]([C@](C)(O)[C@@H](C)O)NC(=O)[C@H]5CSC(=N5)/C(=C/C)NC(=O)[C@H]([C@@H](C)O)NC(=O)c5csc(n5)[C@@]3(CC2)NC(=O)[C@H](C)NC(=O)C(=C)NC(=O)C(=C)NC(=O)[C@H](C(C)C)N[C@@H]2C=Cc3c([C@H](C)O)cc(nc3[C@H]2O)C(=O)O[C@@H]4C)n1)C(N)=O (some centres unmarked) [siomycin]	active proteasome inhibitors	–
C=C(NC(=O)C(=C)NC(=O)c1csc(C2=N[C@@H]3c4csc(n4)[C@H]4NC(=O)c5csc(n5)[C@H]([C@](C)(O)[C@@H](C)O)NC(=O)[C@H]5CSC(=N5)/C(=C/C)NC(=O)[C@H]([C@@H](C)O)NC(=O)c5csc(n5)[C@]3(CC2)NC(=O)[C@H](C)NC(=O)C(=C)NC(=O)[C@H](C)NC(=O)[C@H]([C@@H](C)CC)N[C@@H]2C=Cc3c([C@H](C)O)cc(nc3[C@H]2O)C(=O)O[C@@H]4C)n1)C(N)=O [Thiostrepton A]	active proteasome inhibitors	Neither thiostrepton A nor its Ala4 variants displayed any antibacterial activity
C/C=C(\NC(=O)c1csc(-c2csc(-c3ccc4c(n3)-c3csc(n3)[C@H]([C@@H](C)O)NC(=O)c3csc(n3)[C@H](C(C)(C)O)NC(=O)c3csc(n3)/C(=C/C)NC(=O)[C@H]([C@@H](C)O)NC(=O)c3csc-4n3)n2)n1)C(=O)NC[C@@H](C)O [thiocillin I]	have not yet revealed any proteasome inhibitory properties	–
